This note sets out measurements from patent US20080063613A1, “Syndet Bars Having Ultraviolet Radiation Protection” (priority 2004, published 2008).

The series can be described thus: physchem.

A word on the logP: it is the decadic logarithm of the partition coefficient of the neutral form, usually between octanol and water. A lower logP goes with lower lipophilicity.

Description: Log P is a measure of differential solubility of a compound in two solvents. The log ratio of the concentrations of the solute in the solvent is called Log P or the Partition Coefficient. The most well-known of these partition coefficients is based on the solvents Octanol and Water.

With `CCCCC(CC)COC(=O)C(C#N)=C(c1ccccc1)c1ccccc1` (stereo not shown) [Octocrylene], the log partition coefficient (logP) was roughly 6.9.
